Publication PMC10412636, “An analysis of interactions between three structurally diverse anthocyanidins, as well as their glucosides, and model biological membranes, albumin, and plasmid DNA” (Scientific Reports, 2023)

Key:
[1] = MC540 probe fluorescence intensity in MM liposomes; settings: 37 °C, positive = decrease
Description: (§1) Two types of liposomes were used to study interactions with biological membranes: liposomes mimicking the composition of cancer cell membranes (mimic membrane liposome—MM) and liposomes formed from lipids extracted from human blood erythrocyte membranes (red blood cell membrane liposome—RBCM). […] Both lipids, dissolved in chloroform (MM liposome) and n-decane (RBCM liposome), were evaporated under a nitrogen atmosphere, and then dried in a desiccator for 90 min under a vacuum. The obtained dry lipid film was hydrated in phosphate buffer, pH 7.4, obtaining a concentration of 0.1 mg/ml, and then vortexed for one minute until a homogeneous, milky suspension was observed. The mixture was sonicated (Sonic, Milano, Italia) for 15 min keeping the sample in a bath of ice water, thus providing a cooling temperature of 0 °C. The suspension was then processed (extrusion) through polycarbonate filters with pore diameters of 100 and 200 nm using a Lipex extruder (Evonik). Liposomes, which had been prepared according to this procedure, was used in fluorimetric studies.
(§2) To investigate these properties three fluorescent probes were used: MC540, TMA-DPH, and DPH. MC540 localizes to the outer, hydrophilic part of the membrane, within the region of the glycerol skeleton[44]. Changes in the fluorescence intensity of this probe were formulated as the relative change in intensity to the control as a function of anthocyanins concentration. The TMA-DPH and DPH probes are supposed to locate nearer to the interface and in the hydrophobic region, respectively[45]. The measurement of changes in the anisotropy of the TMA-DPH and DPH probes allowed us to reflect the mobility of the fluorescent probes in the membrane, and therefore to determine the fluidity of the bilayer[46]. Fluorescence anisotropy was calculated using the formula[47]:1 A=I‖-GI⊥/I‖+2GI⊥ where I‖ and I⊥ are the intensity of fluorescence in parallel and perpendicular directions, to the plane of polarization of the excitation wave, respectively. G is an apparatus constant that depends on the emission wavelength.
(§3) Liposomes (the concentration of lipids in the sample was 0.1 mg/ml) were incubated for 30 min with the appropriate probe (dissolved in DMF, 1 µM concentration), and then the tested anthocyanins were added (final concentration of 1 to 30 µM). The control sample consisted of liposomes and a fluorescent probe. Fluorescence was measured on a fluorimeter (Cary Eclipse, Varian, San Diego, USA) at 37 °C. The excitation wavelengths λex and emission wavelengths λem respectively: MC540—λexc = 540 nm, λem = 590 nm; DPH—λexc = 360 nm, λem = 425 nm. nm; TMA-DPH—λexc = 340 nm, λem = 430 nm.

[2] = MC540 probe fluorescence intensity in RBCM liposomes; parameters: species or system human; settings: 37 °C, positive = decrease
Description: as §1, §2, §3

[3] = TMA-DPH probe fluorescence anisotropy in MM liposomes; settings: negative = increase in anisotropy
Description: as §1, §2, §3

[4] = TMA-DPH probe fluorescence anisotropy in RBCM liposomes; parameters: species or system human; settings: negative = increase in anisotropy
[5] = DPH probe fluorescence anisotropy in MM liposomes; settings: MM, negative = increase in anisotropy
[6] = DPH probe fluorescence anisotropy in RBCM liposomes; parameters: species or system human; settings: RBCM, negative = increase in anisotropy
[7] = DPH fluorescence quenching, dissociation constant with MM liposome membrane; assay type: binding; settings: 37 °C
Description: as §1
(§4) The phenomenon of quenching the fluorescence of the DPH probe by biologically active substances enabled us to evaluate the partition coefficient (Kd, dissociation constant) of anthocyanins with both MM and RBCM liposome membranes. For this purpose, changes in the fluorescence intensity of this probe were checked and the coefficient was calculated using the equation[48]:2 1/F0/F-1=Kd/[liposomes]×1/[anthocyanins]+1/liposomes where F0—fluorescence intensity in the absence of anthocyanins (control sample), F—fluorescence intensity in the presence of anthocyanins, [liposomes]—concentration of liposomes in mg/ml, [anthocyanins]—concentration of anthocyanins tested mg/ml.
as §3

[8] = DPH fluorescence quenching, dissociation constant with RBCM liposome membrane; assay type: binding, human; settings: 37 °C
Description: as §1, §4, §3

[9] = molecular target: human serum albumin (HSA) (Homo sapiens, UniProt P02768); experiment: Quenching of natural fluorescence of human serum albumin; assay type: binding; settings: HSA […] 10^–5 M, 37 °C
[10] = system: pHbApr-1-Neo plasmid DNA; experiment: TCSPC-FCS of PicoGreen-labelled plasmid DNA with anthocyanins; assay type: binding
Description: To evaluate the biological interaction with DNA molecules the anthocyanins were initially dissolved in ETOH (1 mM). […] Mixing of such solutions with the aqueous DNA solutions used in the studies never exceeded 1% concentration ETOH (v/v) in the final solution. The DNA plasmid was labelled by PicoGreen (CPicoGreen/CDNAbp = 0.02)[52]. The pHbApr-1-Neo plasmid (10 kbp and contour length 3.4 µm) was a generous gift from the laboratory of Prof. Maciej Ugorski (Department of Biochemistry and Molecular Biology, Wrocław University of Environmental and Life Sciences Wroclaw, Poland). PicoGreen-labelled DNA samples mixed with the appropriate amount of anthocyanins were left overnight and then measured. The increasing concentration of anthocyanins in the tested samples was expressed as the ratio of the molar concentration of anthocyanins per molar concentration of DNA base pairs in a given sample (comp/bp). The 100 µl samples were measured in Ibidi 8-well chambers. Each point on the graph is a single sample (average of 10 measurements). All measurements were performed at room temperature (25 °C). Time-correlated single-photon counting fluorescence correlation spectroscopy (TCSPC-FCS) was used to study the interaction of plasmid DNA at the single molecule level with all tested anthocyanins. […] Low power of 1uW (at the back aperture of the objective) was chosen to minimize photobleaching and saturation. In the detection plane, a pinhole (50um in diameter) was used and the signal was collected by a single photon avalanche diode (SPAD, Microphoton Devices, Bolzano, Italy). Photon arrival times were stored using fast electronics (Picoharp 300, PicoQuant) in time-tagged time-resolved recording mode. Two independent times were assigned to each detected photon: (1) a time after the beginning of the measurement and (2) a time after the previous laser pulse. The FCS data analysis was done using home-built routines (DevC++, Bloodshed Software and OriginPro70, OriginLab Corporation). The TCSPC data analysis was performed using SymPhoTime software (PicoQuant). Further details of the data evaluation are given elsewhere.

Chain of human serum albumin (HSA) (P02768 25-609): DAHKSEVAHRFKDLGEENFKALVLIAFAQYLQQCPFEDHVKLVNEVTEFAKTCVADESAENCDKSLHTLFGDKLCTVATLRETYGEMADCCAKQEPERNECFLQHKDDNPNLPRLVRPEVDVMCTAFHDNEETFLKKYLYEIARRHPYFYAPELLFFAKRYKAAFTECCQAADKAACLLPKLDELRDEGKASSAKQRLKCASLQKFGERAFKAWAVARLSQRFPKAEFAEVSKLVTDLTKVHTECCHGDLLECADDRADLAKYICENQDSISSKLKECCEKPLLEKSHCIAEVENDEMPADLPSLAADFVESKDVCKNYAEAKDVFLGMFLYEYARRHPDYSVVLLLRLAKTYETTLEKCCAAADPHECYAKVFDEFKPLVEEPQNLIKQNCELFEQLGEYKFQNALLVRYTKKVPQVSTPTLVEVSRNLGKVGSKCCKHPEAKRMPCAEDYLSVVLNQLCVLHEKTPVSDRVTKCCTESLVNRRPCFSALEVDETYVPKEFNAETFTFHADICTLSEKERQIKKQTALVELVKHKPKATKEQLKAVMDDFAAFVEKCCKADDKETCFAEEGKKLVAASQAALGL

Oc1cc(O)c2cc(O)c(-c3cc(O)c(O)c(O)c3)[o+]c2c1 [Dp, Delphinidin]
Changes in MC540 fluorescence intensity relative to the control ([1]; 1 µM): 13.66±1.64%
Changes in MC540 fluorescence intensity relative to the control ([1]; 5 µM): 26.57±1.99%
Changes in MC540 fluorescence intensity relative to the control ([1]; 10 µM): 41.91±1.76%
Changes in MC540 fluorescence intensity relative to the control ([1]; 20 µM): 63.50±4.28%
Changes in MC540 fluorescence intensity relative to the control ([1]; 30 µM): 73.23±5.31%
Changes in MC540 fluorescence intensity relative to the control ([1]; 30 µM, listed as delphinidin): 73.2 ± 5.3%
Changes in MC540 fluorescence intensity relative to the control ([2]; 1 µM): 19.22±0.56%
Changes in MC540 fluorescence intensity relative to the control ([2]; 5 µM): 30.39±0.90%
Changes in MC540 fluorescence intensity relative to the control ([2]; 10 µM): 42.45±2.77%
Changes in MC540 fluorescence intensity relative to the control ([2]; 20 µM): 58.15±3.73%
Changes in MC540 fluorescence intensity relative to the control ([2]; 30 µM): 64.08±6.62%
Changes in MC540 fluorescence intensity relative to the control ([2]; 30 µM, listed as delphinidin): 64.1 ± 6.6%
Changes in TMA-DPH anisotropy relative to the control ([3]; 1 µM): -5.27±0.20%
Changes in TMA-DPH anisotropy relative to the control ([3]; 5 µM): -5.27±0.16%
Changes in TMA-DPH anisotropy relative to the control ([3]; 10 µM): -2.04±0.17%
Changes in TMA-DPH anisotropy relative to the control ([3]; 20 µM): 0.86±0.02%
Changes in TMA-DPH anisotropy relative to the control ([3]; 30 µM): -7.43±0.30%
Changes in TMA-DPH anisotropy relative to the control ([4]; 1 µM): -5.61±0.35%
Changes in TMA-DPH anisotropy relative to the control ([4]; 5 µM): -2.41±0.11%
Changes in TMA-DPH anisotropy relative to the control ([4]; 10 µM): 1.85±0.06%
Changes in TMA-DPH anisotropy relative to the control ([4]; 20 µM): 1.35±0.15%
Changes in TMA-DPH anisotropy relative to the control ([4]; 30 µM): 4.73±0.21%
Changes in DPH anisotropy relative to the control ([5]; 1 µM): -8.87±0.24%
Changes in DPH anisotropy relative to the control ([5]; 5 µM): -12.33±0.13%
Changes in DPH anisotropy relative to the control ([5]; 10 µM): -14.45±0.24%
Changes in DPH anisotropy relative to the control ([5]; 20 µM): -16.33±0.38%
Changes in DPH anisotropy relative to the control ([5]; 30 µM): -12.45±0.57%
Changes in DPH anisotropy relative to the control ([6]; 1 µM): -9.06±0.14%
Changes in DPH anisotropy relative to the control ([6]; 5 µM): -9.32±0.41%
Changes in DPH anisotropy relative to the control ([6]; 10 µM): -6.55±0.22%
Changes in DPH anisotropy relative to the control ([6]; 20 µM): -8.84±0.31%
Changes in DPH anisotropy relative to the control ([6]; 30 µM): -7.33±0.24%
Kd [7]: 11.5 ± 2.07 µM
Kd [8]: 9.89 ± 1.96 µM
Stern Volmer constant KSV [9]: 22.46 ± 1.00 × 10^3 M^−1
number of binding sites n [9]: 1.03 ± 0.05
change in Particle Number (PN) ([10]; comp/bp 1.0–5.0): no changes
diffusion time (tD), plateau ([10]; comp/bp 1.0–5.0): 25 to 28 ms
lifetime (LT) ([10]; comp/bp 1.0–5.0, decrease from 3.5 ns): about 2.3 ns
decrease in the diffusion time (tD) ([10]; comp/bp = 0.8, from about 70 ms): tenfold
lifetime (LT) ([10]; comp/bp = 0.8, plasmid alone 4.25 ns): about 3.5 ns
Particle Number (PN) ([10]; comp/bp = 0.8, plasmid alone 5): about 1.2
diffusion time (tD) ([10]; comp/bp = 0.8, plasmid alone about 70 ms): 7.0 ms
changes in plasmid tD, lower compared to those obtained for Pt 3-glc ([10]; comp/bp up to 0.8): about 2 fold
decrease in tD compared to the initial plasmid diffusion time ([10]; plateau, comp/bp 1.0–5.0): twofold
